One test concerns Bacillus subtilis. Nature of the test: Antibacterial activity was evaluated against Bacillus subtilis. It is filed as functional.
Test [1] has as its target Apoptosis regulator Bcl-2 (Homo sapiens) (UniProt P10415). Nature of the test: Effect on DEVD cleavage by DEVDase assay with anti-Fas antibody treatment using Bcl-2 overexpressing HeLa cells; 3 fold activation concentration (AC3). It is filed as functional, cell-based.
For test [2] the target is unchanged. The experiment in a line: Effect on DEVD cleavage by DEVDase assay without anti-Fas antibody using Bcl-2 overexpressing HeLa cells; 3 fold activation concentration (AC3). It is filed as functional, cell-based.
The test system of test [3] is HeLa. Nature of the test: Evaluated for HeLa cell viability with anti-Fas antibody treatment by XTT assay; 3 fold activation concentration (AC3). In kind it is functional, Homo sapiens.
For test [4], the system named is HeLa. Nature of the test: Evaluated for HeLa cell viability without anti-Fas antibody treatment by XTT assay; 3 fold activation concentration (AC3). In kind it is functional, Homo sapiens.

Usually MIC stands for the least concentration at which growth counts as inhibited. Read a low MIC as inhibition by little substance.

Values after ≈ are worked out from the molar mass of the structure shown. Where only a bound is given, the exact number is not on record here.

Chain of Apoptosis regulator Bcl-2 (Homo sapiens) (P10415 whole entry): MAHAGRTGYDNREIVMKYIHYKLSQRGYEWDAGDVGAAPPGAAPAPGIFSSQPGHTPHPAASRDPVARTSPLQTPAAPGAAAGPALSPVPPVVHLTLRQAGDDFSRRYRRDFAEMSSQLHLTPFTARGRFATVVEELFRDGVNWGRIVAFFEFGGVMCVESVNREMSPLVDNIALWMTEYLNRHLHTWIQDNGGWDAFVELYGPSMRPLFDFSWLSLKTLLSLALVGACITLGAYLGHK

For `COC(=O)NC1[C@H](C)O[C@@H](O[C@H]2C/C=C(\C)[C@@H]3C=C[C@@H]4[C@@H](OC5C[C@H](O[C@@H]6CCC(OC7C[C@H](O)[C@@H](OC8CC[C@@H](O)C(C)O8)C(C)O7)[C@H](C)O6)[C@@H](OC(C)=O)C(C)O5)[C@@H](C)C[C@H](C)[C@H]4[C@]3(C)/C(O)=C3\C(=O)O[C@]4(CC(C=O)=CC(O)[C@H]4/C=C\2C)C3=O)CC1(C)[N+](=O)[O-]` (stereo not given in full), the MIC against Bacillus subtilis is less than 0.049 µg/mL. In addition, the AC3 in test [1] was 2.2 µM; in test [2] it was 7.7 µM; in the test on HeLa [3], 1.4 µM; in the test on HeLa [4], 4 µM.

Compound `COCCOCCOCC(=O)O[C@@H]1[C@H]2C=C[C@H]3/C(C)=C/C[C@H](O[C@H]4CC(C)([N+](=O)[O-])C(NC(=O)OC)[C@H](C)O4)/C(C)=C\[C@@H]4[C@@H](O)C=C(C=O)C[C@]45OC(O)=C(C(=O)[C@@]3(C)[C@@H]2[C@@H](C)C[C@@H]1C)C5=O` (stereo not given in full) displayed an MIC against Bacillus subtilis greater than 50 µg/mL. In addition, the AC3 (in test [1]; in test [2]; in the test with HeLa [3]; in the test with HeLa [4]) was greater than 10 µM in each case.

With `COC(=O)NC1[C@H](C)O[C@@H](O[C@H]2C/C=C(\C)[C@@H]3C=C[C@@H]4[C@@H](OC5(C)O[C@@H]6OC(COC(C)=O)[C@@H](OC(C)=O)C(OC(C)=O)[C@@H]6O5)[C@@H](C)C[C@H](C)[C@H]4[C@]3(C)/C(O)=C3\C(=O)O[C@]4(CC(C=O)=C[C@H](OC(C)=O)[C@H]4/C=C\2C)C3=O)CC1(C)[N+](=O)[O-]` (stereo not given in full), the MIC with Bacillus subtilis is greater than 50 µg/mL. Also, the AC3 was 5.7 µM in test [1], greater than 10 µM in test [2], 1.8 µM in the test with HeLa [3] and greater than 10 µM in the test on HeLa [4].

Compound `COC(=O)NC1[C@H](C)O[C@@H](O[C@H]2C/C=C(\C)[C@@H]3C=C[C@@H]4[C@@H](O[Si](C)(C)C(C)(C)C)[C@@H](C)C[C@H](C)[C@H]4[C@]3(C)/C(O)=C3\C(=O)O[C@]4(CC(C=O)=C[C@H](O)[C@H]4/C=C\2C)C3=O)CC1(C)[N+](=O)[O-]` (stereo not given in full) gave an MIC against Bacillus subtilis greater than 50 µg/mL. Also, the AC3 in test [1] is 1.3 µM; in test [2] it was 1.8 µM; in the test with HeLa [3], 2 µM; in the test on HeLa [4], 2 µM.

In the test with Bacillus subtilis, `COC(=O)NC1[C@H](C)O[C@@H](O[C@H]2C/C=C(\C)[C@@H]3C=C[C@@H]4[C@@H](O)[C@@H](C)C[C@H](C)[C@H]4[C@]3(C)/C(O)=C3\C(=O)O[C@]4(CC(C=O)=C[C@H](OC(C)=O)[C@H]4/C=C\2C)C3=O)CC1(C)[N+](=O)[O-]` (stereo not given in full) came in with an MIC greater than 50 µg/mL. The AC3 in test [1] is 8.4 µM; in test [2], greater than 10 µM; in the test with HeLa [3] it was greater than 10 µM; in the test with HeLa [4] it was greater than 10 µM.

In turn, `COC(=O)NC1[C@H](C)O[C@@H](O[C@H]2C/C=C(\C)[C@@H]3C=C[C@@H]4[C@@H](O[C@H]5CCCCO5)[C@@H](C)C[C@H](C)[C@H]4[C@]3(C)/C(O)=C3\C(=O)O[C@]4(CC(C=O)=C[C@H](OC(C)=O)[C@H]4/C=C\2C)C3=O)CC1(C)[N+](=O)[O-]` (stereo not given in full) came in with an MIC with Bacillus subtilis of 6.3 µg/mL (≈ 6.93 µM). The AC3 in test [1] was 3.9 µM; in test [2], 4.9 µM; in the test on HeLa [3], 3.9 µM; in the test with HeLa [4], 4.8 µM.

With `COC(=O)NC1[C@H](C)O[C@@H](O[C@H]2C/C=C(\C)[C@@H]3C=C[C@@H]4[C@@H](OC5C[C@H](O[C@@H]6CCC(OC7C[C@H](O)[C@@H](OC8CC[C@@H](O)C(C)O8)C(C)O7)[C@H](C)O6)[C@@H](OC(C)=O)C(C)O5)[C@@H](C)C[C@H](C)[C@H]4[C@]3(C)C(=O)C3=C(OC)[C@@]4(CC(C=O)=CC(O)[C@H]4/C=C\2C)OC3=O)CC1(C)[N+](=O)[O-]` (stereo not given in full), the minimum inhibitory concentration (MIC) in the test with Bacillus subtilis amounted to 5.2 µg/mL (≈ 3.92 µM). Moreover, the AC3 in test [1] stood at 1 µM; in test [2], 2.5 µM; with HeLa [3], 0.8 µM; in the test on HeLa [4], 1.5 µM.

Turning to `COC(=O)NC1[C@H](C)O[C@@H](O[C@H]2C/C=C(\C)[C@@H]3C=C[C@@H]4[C@@H](OC5C=C[C@H](O)[C@H](C)O5)[C@@H](C)C[C@H](C)[C@H]4[C@]3(C)/C(O)=C3\C(=O)O[C@]4(CC(C=O)=C[C@H](OC(C)=O)[C@H]4/C=C\2C)C3=O)CC1(C)[N+](=O)[O-]` (stereo not given in full), in the test on Bacillus subtilis, the MIC was greater than 50 µg/mL. Moreover, the AC3 was 3.6 µM in test [1], greater than 10 µM in test [2], 3.7 µM in the test with HeLa [3] and greater than 10 µM in the test on HeLa [4].

Regarding `COC(=O)NC1[C@H](C)O[C@@H](O[C@H]2C/C=C(\C)[C@@H]3C=C[C@@H]4[C@@H](O[Si](C)(C)C(C)(C)C)[C@@H](C)C[C@H](C)[C@H]4[C@]3(C)/C(O)=C3\C(=O)O[C@]4(CC(C=O)=C[C@H](O[Si](C)(C)C(C)(C)C)[C@H]4/C=C\2C)C3=O)CC1(C)[N+](=O)[O-]` (stereo not given in full), the minimal inhibitory concentration (MIC) in the test on Bacillus subtilis was greater than 50 µg/mL. Also, the AC3 (in test [1]; in test [2]; in the test on HeLa [3]; in the test with HeLa [4]) was greater than 10 µM each time.

For `COC(=O)NC1[C@H](C)O[C@@H](O[C@H]2C/C=C(\C)[C@@H]3C=C[C@@H]4[C@@H](O[C@@H]5CC(OC(C)=O)C(OC(C)=O)[C@H](C)O5)[C@@H](C)C[C@H](C)[C@H]4[C@]3(C)/C(O)=C3\C(=O)O[C@]4(CC(C=O)=C[C@H](OC(C)=O)[C@H]4/C=C\2C)C3=O)CC1(C)[N+](=O)[O-]` (stereo not given in full), in the test with Bacillus subtilis, the MIC was found to be 16.7 µg/mL (≈ 16.1 µM). The AC3 in test [1] was 2.1 µM; in test [2] it was greater than 10 µM; with HeLa [3], 1.1 µM; with HeLa [4] it was greater than 10 µM.

In turn, `COC(=O)NC1[C@H](C)O[C@@H](O[C@H]2C/C=C(\C)[C@@H]3C=C[C@@H]4[C@@H](O)[C@@H](C)C[C@H](C)[C@H]4[C@]3(C)/C(O)=C3\C(=O)O[C@]4(CC(C=O)=C[C@H](O[Si](C)(C)C(C)(C)C)[C@H]4/C=C\2C)C3=O)CC1(C)[N+](=O)[O-]` (stereo not given in full) returned an MIC against Bacillus subtilis greater than 50 µg/mL. Besides, the AC3 (in test [1]; in test [2]; in the test on HeLa [3]; in the test on HeLa [4]) was greater than 10 µM in each case.

With `COC(=O)NC1[C@H](C)O[C@@H](O[C@H]2C/C=C(\C)[C@@H]3C=C[C@@H]4[C@@H](OCc5ccc(OC)cc5)[C@@H](C)C[C@H](C)[C@H]4[C@]3(C)/C(O)=C3\C(=O)O[C@]4(CC(C=O)=C[C@H](OC(C)=O)[C@H]4/C=C\2C)C3=O)CC1(C)[N+](=O)[O-]` (stereo not given in full), the MIC in the test with Bacillus subtilis is greater than 50 µg/mL. The AC3 in test [1] turned out to be 3.8 µM; in test [2], 4.8 µM; in the test on HeLa [3], 7.6 µM; in the test with HeLa [4], 5.8 µM.

`COCCOCCOCC(=O)O[C@@H]1[C@H]2C=C[C@H]3/C(C)=C/C[C@H](O[C@H]4CC(C)([N+](=O)[O-])C(NC(=O)OC)[C@H](C)O4)/C(C)=C\[C@@H]4[C@@H](O[Si](C)(C)C(C)(C)C)C=C(C=O)C[C@]45OC(O)=C(C(=O)[C@@]3(C)[C@@H]2[C@@H](C)C[C@@H]1C)C5=O` (stereo not given in full) displayed an MIC in the test on Bacillus subtilis greater than 50 µg/mL. Besides, the AC3 is 9.5 µM in test [1], greater than 10 µM in test [2], 3.9 µM in the test on HeLa [3] and 6.4 µM with HeLa [4].

Consider `COC(=O)NC1[C@H](C)O[C@@H](O[C@H]2C/C=C(\C)[C@@H]3C=C[C@@H]4[C@@H](O)[C@@H](C)C[C@H](C)[C@H]4[C@]3(C)/C(O)=C3\C(=O)O[C@]4(CC(C=O)=C[C@H](O)[C@H]4/C=C\2C)C3=O)CC1(C)[N+](=O)[O-]` (stereo not given in full), for which, in the test with Bacillus subtilis, the MIC is greater than 50 µg/mL. The AC3 (in test [1]; in test [2]; in the test with HeLa [3]; with HeLa [4]) was greater than 10 µM in each case.

For the compound `CC[Si](CC)(CC)OO[C@H]1C=CC(O[C@@H]2[C@H]3C=C[C@H]4/C(C)=C/C[C@H](O[C@H]5CC(C)([N+](=O)[O-])C(NC(=O)OC)[C@H](C)O5)/C(C)=C\[C@@H]5[C@@H](OC(C)=O)C=C(C=O)C[C@]56OC(O)=C(C(=O)[C@@]4(C)[C@@H]3[C@@H](C)C[C@@H]2C)C6=O)O[C@H]1C` (stereo not given in full), the MIC against Bacillus subtilis is greater than 50 µg/mL. In addition, the AC3 in test [1] is 4.9 µM; in test [2] it was greater than 10 µM; with HeLa [3] it was 4.3 µM; in the test on HeLa [4] it was greater than 10 µM.

The record behind these values is ChEMBL document CHEMBL1134418, “Synthesis of tetrocarcin derivatives with specific inhibitory activity towards Bcl-2 functions” (2001).
